{"source": "patent US20220079948A1", "about": "“COMPOSITIONS AND METHODS FOR SUPPRESSING AND/OR TREATING HIV-INFECTION AND/OR A RELATED CLINICAL CONDITION THEREOF” (Indiana University Research And Technology Corporation, priority 2018, published 2022)", "type_in_all_cases": "cell-based, human", "key": {"[1]": {"test_system": "S1P1 surface expression in SupT1 wildtype (SupT1) cells", "assay": "S1P1 cell surface staining (fluorescence cytometry), mock transfected / control SupT1 cells", "settings": "PAK2 inhibition (5 μM FRAX597) in mock transfected cells", "description": "(§1) S1P1 cell surface staining. For assessing Nef-dependent S1P1 regulations, stably transfected T cells (SupT) resulting in estrogen inducible Nef expression (Nef-ER) were used (see Lee J. H. et al. HIV Activates the Tyrosine Kinase Hck to Secrete ADAM Protease-Containing Extracellular Vesicles. EBIOMEDICINE 2018, 28:151-161). Upon treatment with tamoxifen (1 μM; established using CD4 downregulation) for 16 hours, fluorescence cytometry analysis was performed with an anti-S1P1 monoclonal antibody coupled to eFluor 660 (SW4GYPP, EBIOSCIENCE™).\n(§2) HIV-Nef Leads to S1P1 Downregulation and Impaired Migration of T cells to S1P1 Gradients. The effect of Nef on regulation of S1P1 surface expression was examined using a recombinant human T cell line (SupT1), which stably expresses a tamoxifen inducible Nef (Nef-ER). Upon treatment with tamoxifen (1 μM) for 16 hours (as established for CD4 downregulation—see e.g., Walk S. F. et al., Design and use of an inducibly activated human immunodeficiency virus type 1 Nef to study immune modulation. J VIROL 2001; 75 (2):834-843), fluorescence cytometry analysis was performed with an anti-S1P1 monoclonal antibody coupled to eFluor 660 (SW4GYPP, EBIOSCIENCE™). […] To determine whether there was a specific pathway involved in HIV-Nef dependent S1P1, downregulation, PAK2 signaling was tested. […]"}, "[2]": {"test_system": "S1P1 surface expression in SupT1 cells stably expressing tamoxifen-inducible HIV-1SF2-Nef-estrogen receptor construct (Nef-ER)", "assay": "S1P1 cell surface staining (fluorescence cytometry), tamoxifen-activated Nef-ER cells", "settings": "5 μM FRAX597, Nef activated with tamoxifen (1 μM) 16 hours, FIG. 1A/1D", "description": "as §1, §2"}, "[3]": {"test_system": "Nef-ER cells (SupT1) migration towards S1P gradient", "assay": "Migration assay through collagen I-coated transwell chambers towards S1P", "settings": "pretreatment with PAK2 inhibitor (5 μM); 4HT-activated Nef-ER cells; 100 nM S1P, 4 hours, 37° C.; FIG. 1B", "description": "Migration assay. 4-Hydroxy tamoxifen (4HT) activated SupT1 control and Nef-ER cells were labeled with 2.5 uM Calcein-AM, washed using centrifugation and resuspended in phenol red free RPMI containing 0.1% fatty acid free BSA. These cells were loaded on the top chamber of collagen I-coated 4 micron transwell chambers as previously described (see, e.g., Iino J. et al. Platelet-derived sphingosine 1-phosphate induces migration of Jurkat T cells. LIPIDS HEALTH DIS 2014, 13:150). Briefly, cells were allowed to transmigrate,\nThis downregulation can lead to reduced chemotactic migration towards S1P as evidenced from experiments when 4 HT activated. SupT1I control and Nef-ER cells were tested for migration through collagen I-coated transwell chambers towards S1P gradients as previously described for Jurkat T cells (Iino J. et al. 2015)."}}}
{"smiles": "CCn1c(=O)c(-c2ccc(-c3cncs3)cc2Cl)cc2cnc(Nc3ccc(N4CCN(C)CC4)cc3)nc21", "note": "[FRAX597]", "values": [{"measurement": "S1P1 surface expression", "setting": "[1]", "result": "downregulation of S1P1"}, {"measurement": "S1P1 surface expression", "setting": "[1]; listed as PAK2 inhibitor", "result": "downregulation of S1P"}, {"measurement": "S1P1 surface expression", "setting": "[2]", "result": "not only restored S1P1 surface expression, but also increased S1P1 surface expression"}, {"measurement": "S1P1 surface expression", "setting": "[2]; listed as FRAX 597", "result": "restored S1P1 surface expression"}, {"measurement": "Migration to bottom chamber containing S1P", "setting": "[3]", "result": "not only restored the effect of NEF-ER but also showed significant increase in migration"}]}
